Experimental data reported in patent US11827636B2, “Degradation of cyclin-dependent kinase 8 (CDK8) by conjugation of CDK8 inhibitors with E3 ligase ligand and methods of use” (DANA-FARBER CANCER INSTITUTE, INC., priority 2016, dated 2023).

Experiments:
Type in all cases: cell-based
[1] = target: T1, CDK8 (Homo sapiens, UniProt P49336); test: Enzyme degradation assay (western blot), CDK8 level in wild-type (WT) Molt4 cells; conditions: 1 μM compound, 6 hours
T1 construct: endogenous in cells; host or cells: wild-type Molt4 cells
Experimental: (§1) Cells are treated with a control or a bifunctional compound of the application alone or in combination with an agent that blocks proteasomal degradation at a single concentration or various concentrations. After treatment, cells are washed and harvested by resuspending in buffer and lysed on ice 30 minutes. Lysates are then cleared by centrifugation. Samples are boiled and equal amount of protein is loaded onto polyacrylamide gel. The gel is transferred to nitrocellulose and blotted for CDK8, mTOR, STAT1 serine 727 phosphorylation or actin.
(§2) The indicated cells were treated with vehicle control or the bifunctional compounds of the application, at a single or various concentrations, alone or in combination with bortezomib, an agent that blocks proteasomal degradation. After treatment, cells were washed with PBS and lysed in lysis buffer and then cleared by centrifugation. Protein concentrations were determined by BCA assay, and equal amounts of protein were loaded onto gels to perform Western blots. Gels were transferred to nitrocellulose, blocked with 5% milk in TBS-T, and probed for CDK8, mTOR, S727-STAT1, and Actin. Antibody binding was detected using near-infrared-dye-conjugated secondary antibodies.

[2] = tested on: pS727-STAT1; test: Western blot, pS727-STAT1 level in wild-type (WT) Molt4 cells; conditions: 1 μM compound, 6 hours
Experimental: as §1, §2

[3] = target: T2, CDK8 (Mus musculus, UniProt Q8R3L8); test: Enzyme degradation assay (western blot), CDK8 level in MC38 colorectal cancer cells; conditions: 6 hours
T2 construct: levels of CDK8, pS727-STAT1, and actin in MC38 colorectal cancer cells; endogenous in cells; host or cells: MC38 colorectal cancer cells
T2 sequence (Q8R3L8 1-464): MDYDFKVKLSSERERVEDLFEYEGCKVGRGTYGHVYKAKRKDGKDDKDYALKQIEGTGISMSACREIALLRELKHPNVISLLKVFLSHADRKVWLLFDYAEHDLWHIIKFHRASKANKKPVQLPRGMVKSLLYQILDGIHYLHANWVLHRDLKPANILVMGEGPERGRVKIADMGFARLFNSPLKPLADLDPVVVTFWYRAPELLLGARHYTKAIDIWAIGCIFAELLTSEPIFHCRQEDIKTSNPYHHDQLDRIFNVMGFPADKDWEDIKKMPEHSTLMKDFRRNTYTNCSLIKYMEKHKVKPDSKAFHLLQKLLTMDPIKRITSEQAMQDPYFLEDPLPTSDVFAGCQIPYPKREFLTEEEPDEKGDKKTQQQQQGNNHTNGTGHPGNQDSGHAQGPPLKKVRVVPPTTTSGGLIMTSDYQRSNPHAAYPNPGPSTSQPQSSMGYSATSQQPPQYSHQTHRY
T2 sequence (Q62447 1-283 partner): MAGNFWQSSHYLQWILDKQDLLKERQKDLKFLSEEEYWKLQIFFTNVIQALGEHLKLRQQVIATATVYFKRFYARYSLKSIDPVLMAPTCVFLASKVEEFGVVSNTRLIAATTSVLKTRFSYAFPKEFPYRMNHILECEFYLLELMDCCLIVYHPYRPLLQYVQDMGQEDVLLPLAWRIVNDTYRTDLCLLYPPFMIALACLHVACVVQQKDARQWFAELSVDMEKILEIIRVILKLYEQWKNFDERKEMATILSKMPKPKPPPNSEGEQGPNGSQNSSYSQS
T2 sequence (Q8C7D2 1-445 partner): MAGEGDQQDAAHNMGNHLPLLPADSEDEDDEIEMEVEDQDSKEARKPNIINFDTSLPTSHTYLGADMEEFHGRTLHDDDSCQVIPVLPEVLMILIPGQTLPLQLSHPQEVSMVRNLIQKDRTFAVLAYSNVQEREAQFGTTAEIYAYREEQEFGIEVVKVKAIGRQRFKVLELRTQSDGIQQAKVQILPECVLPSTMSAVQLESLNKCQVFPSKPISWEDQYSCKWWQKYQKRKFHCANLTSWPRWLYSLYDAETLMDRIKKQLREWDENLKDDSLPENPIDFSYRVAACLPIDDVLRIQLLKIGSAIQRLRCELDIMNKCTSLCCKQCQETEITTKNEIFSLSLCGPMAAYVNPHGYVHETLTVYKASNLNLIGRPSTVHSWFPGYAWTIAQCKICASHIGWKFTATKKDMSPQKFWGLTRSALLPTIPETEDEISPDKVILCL
Experimental: as §1
Cells are treated with a control or a bifunctional compound of the application at various concentrations for a desired period of time. Cells are then lysed in a suitable buffer. Protein concentration may be measured with any appropriate assay known in the art. […] The signals from the label are detected.
The indicated cells were treated with vehicle control or the bifunctional compounds of the application, at a single or various concentrations, alone or in combination with bortezomib, an agent that blocks proteasomal degradation. […] Protein concentrations were determined by BCA assay, and equal amounts of protein were loaded onto gels to perform Western blots. […] Antibody binding was detected using near-infrared-dye-conjugated secondary antibodies. […]

[4] = tested on: pS727-STAT1; test: Western blot, pS727-STAT1 level in MC38 colorectal cancer cells; conditions: 6 hours
Experimental: as §1, §2

[5] = 1 μM compound in combination with 10 nM bortezomib

T1 sequence (P49336 whole entry): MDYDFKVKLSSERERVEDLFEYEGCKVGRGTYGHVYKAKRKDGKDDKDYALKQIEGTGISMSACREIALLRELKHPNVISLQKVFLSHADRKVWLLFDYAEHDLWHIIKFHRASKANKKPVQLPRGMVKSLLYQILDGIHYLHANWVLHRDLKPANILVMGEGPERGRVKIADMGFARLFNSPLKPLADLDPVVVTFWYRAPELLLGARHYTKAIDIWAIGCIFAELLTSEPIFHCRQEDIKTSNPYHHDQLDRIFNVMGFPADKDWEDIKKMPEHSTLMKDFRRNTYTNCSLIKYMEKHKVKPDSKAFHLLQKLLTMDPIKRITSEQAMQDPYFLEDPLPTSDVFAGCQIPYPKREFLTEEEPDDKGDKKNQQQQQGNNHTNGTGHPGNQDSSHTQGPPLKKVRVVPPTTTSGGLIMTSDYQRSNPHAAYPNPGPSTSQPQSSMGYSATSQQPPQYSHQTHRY
T1 sequence (P24863 whole entry partner): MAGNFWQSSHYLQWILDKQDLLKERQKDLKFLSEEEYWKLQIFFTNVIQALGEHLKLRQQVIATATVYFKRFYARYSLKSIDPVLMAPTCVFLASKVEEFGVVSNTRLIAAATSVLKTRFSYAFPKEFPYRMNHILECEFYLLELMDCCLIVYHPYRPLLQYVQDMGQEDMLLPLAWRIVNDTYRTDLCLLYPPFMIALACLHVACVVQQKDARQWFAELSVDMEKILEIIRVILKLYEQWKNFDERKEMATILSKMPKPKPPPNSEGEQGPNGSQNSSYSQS
T1 sequence (Q96SW2 whole entry partner): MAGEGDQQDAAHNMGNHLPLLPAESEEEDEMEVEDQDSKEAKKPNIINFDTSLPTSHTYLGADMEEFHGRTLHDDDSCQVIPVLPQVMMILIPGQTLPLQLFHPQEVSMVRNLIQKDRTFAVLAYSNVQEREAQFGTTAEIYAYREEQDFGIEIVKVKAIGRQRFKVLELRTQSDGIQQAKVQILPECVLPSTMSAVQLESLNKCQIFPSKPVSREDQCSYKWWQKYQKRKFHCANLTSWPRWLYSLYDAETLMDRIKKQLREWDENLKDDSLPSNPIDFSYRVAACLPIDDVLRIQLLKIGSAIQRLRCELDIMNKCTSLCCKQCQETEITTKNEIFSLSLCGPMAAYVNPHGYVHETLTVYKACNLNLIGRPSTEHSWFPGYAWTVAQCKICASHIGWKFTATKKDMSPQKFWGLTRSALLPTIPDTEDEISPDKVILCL

| Compound | degradation of CDK8 (western blot level of CDK8) [1] | phosphorylation of Ser727-STAT1 [2] | degradation of CDK8 when the proteasome is inhibited with bortezomib [3, 5] | degradation of CDK8 (western blot level of CDK8) ([3]; 1 μM compound, alone) | reduction in the level of pSer727-STAT1 when the proteasome is inhibited with bortezomib [4, 5] | level of phosphorylation of the CDK8 substrate Ser727-STAT1 ([4]; 1 μM compound, alone) |
| --- | --- | --- | --- | --- | --- | --- |
| O=C1CCC(N2C(=O)c3cccc(NCCCCn4cc(-c5ccc(-c6cncc(Cl)c6N6CCC7(CCNC7=O)CC6)cc5)cn4)c3C2=O)C(=O)N1 (centres unmarked) [Compound I-6, 4-(4-(4-(4-(5-chloro-4-(1-oxo-2,8-diazaspiro[4.5]decan-8-yl)pyridin-3-yl)phenyl)-1H-pyrazol-1-yl)butylamino)-2-(2,6-dioxopiperidin-3-yl)isoindoline-1,3-dione] | efficiently degraded CDK8 | blocked phosphorylation | – | – | – | – |
| O=C1CCC(N2C(=O)c3cccc(NCCOCCOCCOCCOCCOCCC(=O)N4CCN(c5ccc(-n6c(=O)ccc7cnc8ccc(-c9ccc%10ccncc%10c9)cc8c76)cc5C(F)(F)F)CC4)c3C2=O)C(=O)N1 (centres unmarked) [Compound I-3, 2-(2,6-dioxopiperidin-3-yl)-4-((18-(4-(4-(9-(isoquinolin-7-yl)-2-oxobenzo[h][1,6]naphthyridin-1(2H)-yl)-2-(trifluoromethyl)phenyl)piperazin-1-yl)-18-oxo-3,6,9,12,15-pentaoxaoctadecyl)amino)isoindoline-1,3-dione] | efficiently degraded CDK8 | blocked phosphorylation | rescued | efficiently degraded CDK8 | rescued | lowered the level of phosphorylation |
